1 compound from patent US12702660B2, “Method for treating cancer with an oral dosage form of an estrogen receptor-alpha inhibitor” (Eisai R&D Management Co., Ltd., priority 2019, dated 2026) can be followed below.

The structures appear in SMILES notation. Entries after “also recorded” stand apart in the source; their conditions may differ.

What all share (format): in vivo, human
Data set [1] concerns ctDNA (ESR1, PIK3CA and AKT1 mutations). The data set is described as follows: ctDNA mutant allele frequency monitoring (BEAMing, ddPCR) in plasma. An excerpt: Fresh plasma samples were collected at baseline (predose), cycle 1 day 15 (CID15), C2D1, C3D1 and every 8 weeks thereafter with a final sample collection at disease progression. At baseline, BEAMing digital PCR was used to evaluate hotspot mutations in ESR1, PIK3CA and AKT1. Patient specific ctDNA mutations were subsequently monitored by ddPCR. Baseline tumor biopsies were subjected to a targeted Next Generation Sequencing (NGS) panel to identify hotspot mutations.
• H3B-6545 administered once daily orally (PO QD) over a 28-day cycle • Dose escalation using a standard 3+3 study design using dose cohorts of 100, 200, 300, 450, and 600 mg/day
Liquid biopsy assays: 10 ml of Strek plasma was collected at the site and then processed into plasma at Sysmex Inostics. cfDNA was isolated from 2 ml of plasma for BEAMing and 3 ml for Biorad ddPCR

The test system of the next data set is Ki67. The data set can be described thus: Pharmacodynamics: Ki67 levels post-treatment. Conditions: across all dose levels post-treatment. The method, then: (§1) Methods were used to analyze whether H3B-6545 inactivates both wild-type and mutant ERα by targeting cysteine 530 and enforcing a unique antagonist conformation. Methods: Women with locally advanced or metastatic HR+BC are treated (tx) with H3B-6545 drug product administered once daily orally by capsule over a 28 day cycle after progression on at least one hormonal therapy and at least one additional therapy/regimen. Dose escalation uses a 3+3 design with the option to backfill previously cleared doses and allows for intrapatient dose escalation. This example explored the safety, pharmacokinetics and pharmacodynamics of H3B-6545 in women with HR+BC to identify a recommended subsequent dose for testing.

The subject of data set [2] is locally advanced or metastatic ER+HER2−BC. The data set can be described thus: Tumor response and progression-free survival, phase 1 dose escalation. As to conditions: as of 10 Dec. 2018; 32 patients, 100 to 450 mg/day.
Data set [3] concerns ER target gene expression. The data set can be described thus: Pharmacodynamics: ER target gene expression. Conditions: patients, 100 to 450 mg/day. On the procedure: as §1
The nature of data set [4]: Plasma PK of H3B-6545 capsules in fasted patients, phase 1 dose escalation. Conditions: 100 to 450 mg; as of 10 Dec. 2018.

As to `CN(C)C(=O)/C=C/CNCCOc1ccc(/C(=C(/CC(F)(F)F)c2ccccc2)c2ccc3[nH]nc(F)c3c2)cn1` [H3B-6545, (E)-N,N-dimethyl-4-[2-[5-[(Z)-4,4,4-trifluoro-1-(3-fluoro-1H-indazol-5-yl)-2-phenylbut-1-enyl]pyridin-2-yl]oxyethylamino]but-2-enamide], in data set [1] (plasma), the “changes in mutant allele frequencies versus response” value is on record as “show correlation in response to treatment; also recorded: show correlation to clinical response”. In data set [1] (serial ctDNA monitoring), the “ctDNA levels by C2D1 in patients with confirmed partial response” value is listed as “undetectable”, the “patients with confirmed partial responses whose ctDNA levels were undetectable by C2D1” value is recorded as 3/3 and the “patients with progressive disease whose ctDNA levels increased from baseline” value is reported as 3/4. In addition, the “decrease in Ki67 levels” value with Ki67 came to 50%. Moreover, in data set [2], the “Partial responses (PRs), patients” value was 3 patients; the “Stable disease, % of patients” value is reported as 47%; the “patients who completed at least 6 months of treatment” value is 34%. Also, the “ER target gene expression” value in data set [3] is reported as “inhibited ER target gene expression”. In addition, the “plasma concentration versus dose” value in data set [4] is reported as “increased with dose”.
